Assay results: ChEMBL document CHEMBL3507680, “University of Dundee, Gates Library screen for HepG2 cell viability”

Assay: Human HepG2 cell viability assay in 384 well format
Type: toxicity, cell-based
Design: dose 125 nL, time 70.5 hour; concentration not given beside the values
Conditions: HepG2 cells, read-out: Inhibition

Row | SMILES | cytotoxicity at 70.5 h [%]
1 | O=C(Cc1cn2ccsc2n1)N(Cc1ccco1)CC1CCCO1 (stereo unspecified) | 7.91
2 | CCn1cc(C(=O)Nc2cc(C)ccc2C)cn1 | 17
3 | O=C(Cc1cccc(F)c1)N1CCN2C[C@H](Oc3cncnc3)C[C@H]2C1 | -2.68
4 | CN(C)Cc1nc(C(C)(C)NC(=O)C2CC(=O)N(CC3CC3)C2)no1 (stereo unspecified) | 19.5
5 | CS(=O)(=O)N[C@@H]1CN(Cc2ccccc2)C[C@H]1O | -5.89
6 | Cc1cn2c(n1)CCC(NC(=O)c1cc[nH]n1)C2 (stereo unspecified) | -4.85
7 | Cc1nn(CCC#N)c(C)c1CCC(=O)N(C)Cc1ccsc1 | -8.77
8 | O=C1NCCc2c1sc1ccc(C(=O)N3CC[C@H](CO)[C@H](O)C3)cc21 | -2.24
9 | NC(=O)N1CCC(C(=O)NCc2nncn2-c2ccccc2)CC1 | 1.01
10 | O=S1(=O)C[C@@H]2[C@H](C1)N(Cc1ncc[nH]1)CCN2C/C=C/c1ccccc1 | -7.45
11 | O=C(N1CCCC(n2cncn2)C1)C1(c2cccc(F)c2)CCCC1 (stereo unspecified) | 16.5
12 | Cc1cc(Cl)ccc1C(=O)C1CCCN(Cc2cnc(N(C)C)s2)C1 (stereo unspecified) | -5.77
13 | CC(C)CCOc1ccc(C(C)NC(=O)Cn2cccnc2=O)cc1 (stereo unspecified) | -5.94
14 | O=C(CSCC1CC1)N1CCCN(Cc2ccc(F)cc2)CC1 | -11.1
15 | NC(=O)C1CCN(C(=O)c2ccc(Cn3cc(Br)cn3)cc2)CC1 | 16
16 | Cc1ccccc1CS(=O)(=O)NCCCN1CCCCC1 | -4.67
17 | Cc1cc(CN(C)C(=O)NCC2CCS(=O)(=O)C2)no1 (stereo unspecified) | -9.21
18 | COCc1nc2nc(O)c3c(n2n1)NC(=O)CC3c1ccccc1Cl (stereo unspecified) | 4.14
19 | COc1cc(C)nc(N2CCN(C(=O)CSC)CC2)n1 | -11.8
20 | Cc1ccc(CCc2nc(C3CCOC3)no2)o1 (stereo unspecified) | 6.82
21 | COc1ccc(CN2CCn3cc(CNC(=O)CC4CC4)nc3C2)cc1 | -8.89

Row | SMILES | cytotoxicity at 70.5 h [%]
22 | Cn1[nH]c(C2CC2)c(-c2ccc3c(c2)OCO3)c1=N | 8.3
23 | C1=CCN(c2nc(CC3CC3)nc3c2CCN(C2CCOCC2)CC3)C1 | -1.95
24 | CC(=O)N1CCC2(CC1)CN(C)C(=O)C[C@H]2C(F)(F)F | -7.04
25 | CCN(CC1CCOCC1)C(=O)CCNC(=O)c1ccccc1F | -23.5
26 | O=C(c1ccc(Cl)c(Cl)c1)N1CCCC(n2cncn2)C1 (stereo unspecified) | -14
27 | NC(=O)c1ccc(CNCC2CCN(CCO)CC2)cc1 | -5.52
28 | CC(CCNC(=O)NCCc1ccncc1)c1ccccc1 (stereo unspecified) | -0.345
29 | O=C(Cc1ccccn1)N1CCN2C[C@H](OCCN3CCCC3)C[C@H]2C1 | 19.7
30 | CCNC(=O)C(C)Oc1ccc(N(C)S(C)(=O)=O)cc1 (stereo unspecified) | -5.5
31 | CCN(Cc1noc(C2CCC2)n1)C(=O)CCc1cc2n(n1)CCNC2 | -7.31
32 | Cc1cnn(CC(C)NCc2cc(=O)n3ccccc3n2)c1 (stereo unspecified) | -11.2
33 | Cc1nnc2n1CCN(Cc1csc(COc3ccccc3)n1)C2 | -7.26
34 | CCc1noc(C(C)N2CCN(c3ccc(C#N)cn3)CC2)n1 (stereo unspecified) | -2.7
35 | CC(C)(C)c1nc(CN(Cc2cccnc2)C2CN3CCC2CC3)no1 (stereo unspecified) | -1.01
36 | CN(CCC#N)C(=O)C(C)(C)Oc1ccc(C(N)=O)cc1 | 20.4
37 | Cc1ccc(C(=O)N2CCc3ncccc3C2)cc1N1CCNC1=O | 0.999
38 | CCN(Cc1cccnc1)CC1CCCO1 (stereo unspecified) | -0.83
39 | COc1cccc(CNCC2CN(C)CCO2)c1 (stereo unspecified) | -7.17
40 | COc1ccc(S(=O)(=O)NCC(N)c2ccccc2)c(C)c1 (stereo unspecified) | -5.68
41 | COC(=O)c1ccc(CNC(=O)Nc2ccc(=O)n(C)c2)cc1 | -2.19
42 | CCCC(C(=O)NCCc1nc(C)cs1)N(C)C (stereo unspecified) | 2.88

Row | SMILES | cytotoxicity at 70.5 h [%]
43 | CC(O)CN1CCN(C(=O)c2ccn(-c3ccccc3Cl)n2)CC1 (stereo unspecified) | -2.57
44 | CC(C)c1cc(C2CCN(C(=O)Cn3cnc4ccccc43)CC2)[nH]n1 | 4.36
45 | CC(=O)N(Cc1noc(C2CC2)n1)C1CCN(Cc2ccccc2)C1 (stereo unspecified) | -5.69
46 | Cc1nc2sccn2c1C(=O)N1CCn2nc(C(=O)NC3CC3)cc2C1 | -11.6
47 | Cc1cc(NC(=O)CN2CCCC2c2noc(C3CC3)n2)on1 (stereo unspecified) | -7.03
48 | CC(C)COc1cncc(N2CCCN(CC(F)(F)F)CC2)n1 | -5.33
49 | CCN1CCC(CC(=O)NCCc2nc(N)cc(O)n2)CC1 | -2.8
50 | Cc1cnn(CC2CN(c3nnc(C)c(C)c3C#N)CCO2)c1 (stereo unspecified) | -3.86
51 | CCC[C@H]1CN(Cc2cc(C#N)n(C)c2C)C[C@@H]1N(C)C | -7.07
52 | CCc1n[nH]c(C2CN(CCc3cccs3)CCO2)n1 (stereo unspecified) | 22.1
53 | COCCN(Cc1ccccn1)C(=O)c1ccc(=O)n(C)c1 | 1.44
54 | O=C(NCCc1ccc(I)s1)N1CCC1 | -2.1
55 | CCCc1nc(N(C)CCc2noc(C(C)C)n2)c2cnn(C)c2n1 | 5.48
56 | CC(C)(C)c1ncc(C(=O)NCCNC(=O)c2ccc(O)cc2)s1 | -7.09
57 | Cc1nn(C)c(C)c1CN(C)c1nc(C2CC2)nc2c(C)nn(C)c12 | 29.7
58 | CN1CCCC(CCC(=O)NCCCn2ncc3ccccc32)C1 (stereo unspecified) | 25.3
59 | CS(=O)(=O)N1CCC(NC(=O)COc2ccc(Cl)c(Cl)c2)CC1 | -8.67
60 | COCC(=O)NC[C@]12COC[C@H]1CN(Cc1ccc3c(c1)OCO3)C2 | -0.957
61 | c1ccc(N2CCCC3(CCN(Cc4nccs4)C3)C2)nc1 (stereo unspecified) | 6.32
62 | O=C(C1=CCCC1)N1CCC[C@]2(C[C@@H](OCc3ccncc3)CO2)C1 | 0.64
63 | COc1ccc(N(C(=O)c2ccc(C)nc2)C(C)C)cc1F | 15.8

Row | SMILES | cytotoxicity at 70.5 h [%]
64 | COc1ccc(CNC(=O)C2=NN(c3ccc(C)cc3)C(=O)CN2)cc1 | -5.36
65 | CC(NC(=O)Cn1ccc(=O)n(C)c1=O)c1cc(F)ccc1F (stereo unspecified) | -1.78
66 | Cc1cc(NC(C)C(=O)NCc2ccccc2)nc(-c2ccncc2)n1 (stereo unspecified) | -13.1
67 | Cc1ccccc1[C@@H]1CN(CCCS(=O)(=O)N(C)C)C[C@H]1C(=O)O | 7.05
68 | CCN(CC)c1nc(C)cc(C(=O)Nc2ccc(Br)cc2)n1 | 3.54
69 | Cc1cc(C)n(CC2CCCCN2C(=O)c2ccc3nncn3c2)n1 (stereo unspecified) | -2.04
70 | Cn1nccc1C(=O)N1CCC2(CC1)COC(COc1ccccn1)C2 (stereo unspecified) | -11.2
71 | C[C@@H]1CN(Cc2ccccn2)C[C@]12CCN(Cc1cccnc1)C2=O | -13.1
72 | O=C(c1cccc(-n2cccn2)c1)N1CCCOC(CN2CCCC2)C1 (stereo unspecified) | 0.244
73 | COc1ccc(OC)c(C2CCN(C(=O)C3CCS(=O)(=O)CC3)C2)c1 (stereo unspecified) | -7.16
74 | O=C(Nc1ccccc1)C1=NOC2(CCCN(C(=O)C3CCCC3)C2)C1 (stereo unspecified) | -1.79
75 | O=C(CC1CN(Cc2ccccc2)CCO1)Nc1ccccc1F (stereo unspecified) | -3.6
76 | CN(C)CC1CN(c2ccc(C#N)cn2)CCO1 (stereo unspecified) | -10.1
77 | CCc1nccn1CCCNC(=O)CN1CCN(c2ncccn2)CC1 | -7.13
78 | CNc1nc(C)c(C(=O)N2CCCCC2CCc2ccc(O)cc2)s1 (stereo unspecified) | -8.49
79 | Cc1ncncc1C(=O)NCCn1nc2ccccn2c1=O | -3.41
80 | CN1CC2(CCN(C(=O)c3cn4cccnc4n3)CC2)CC1=O | 39.7
81 | CCCc1cc(C(=O)N2Cc3ccccc3C2)[nH]n1 | 6.06
